# Experiments:
# Format in all cases: functional
# Candida albicans [1] = test: Antifungal activity against Candida albicans; conditions: Candida albicans
# Candida parapsilosis = test: Antifungal activity against Candida parapsilosis; conditions: Lodderomyces parapsilosis
# Candida tropicalis [2] = test: Antifungal activity against Candida tropicalis; conditions: Candida tropicalis
# Cryptococcus neoformans [3] = test: Antifungal activity against Cryptococcus neoformans; conditions: Cryptococcus neoformans
# Pichia kudriavzevii = test: Antifungal activity against Candida krusei
# Candida albicans [4] = test: Antifungal activity against Candida albicans after 24 hrs by NCCLS protocol based method
# Candida tropicalis [5] = test: Antifungal activity against Candida tropicalis after 24 hrs by NCCLS protocol based method
# Cryptococcus neoformans [6] = test: Antifungal activity against Cryptococcus neoformans after 72 hrs by NCCLS protocol based method
# Trichophyton rubrum [7] = test: Antifungal activity against Trichophyton rubrum after 7 days by NCCLS protocol based method; conditions: 168 h
# Nannizzia gypsea = test: Antifungal activity against Microsporum gypseum after 7 days by NCCLS protocol based method; conditions: 168 h
# Candida tropicalis [8] = test: Antifungal activity against Candida tropicalis after 24 hrs by microbroth dilution method
# Trichophyton rubrum [9] = test: Antifungal activity against Trichophyton rubrum after 24 hrs by microbroth dilution method
# Microsporum canis [10] = test: Antifungal activity against Microsporum canis after 24 hrs by microbroth dilution method
# Fonsecaea compacta [11] = test: Antifungal activity against Fonsecaea compacta after 24 hrs by microbroth dilution method
# Aspergillus fumigatus [12] = test: Antifungal activity against Aspergillus fumigatus after 24 hrs by microbroth dilution method
# Candida tropicalis [13] = test: Potency index, ratio of fluconazole MIC to test compound MIC for Candida tropicalis
# Candida albicans [14] = test: Potency index, ratio of fluconazole MIC to test compound MIC for Candida albicans ATCC 76615
# Cryptococcus neoformans [15] = test: Potency index, ratio of fluconazole MIC to test compound MIC for activity against Cryptococcus neoformans ATCC 32609
# Trichophyton rubrum [16] = test: Potency index, ratio of fluconazole MIC to test compound MIC for Trichophyton rubrum
# Microsporum canis [17] = test: Potency index, ratio of fluconazole MIC to test compound MIC for Microsporum canis
# Fonsecaea compacta [18] = test: Potency index, ratio of fluconazole MIC to test compound MIC for Fonsecaea compacta
# Aspergillus fumigatus [19] = test: Potency index, ratio of fluconazole MIC to test compound MIC for Aspergillus fumigatus
SMILES,MIC80 (Candida albicans [1]) [µg/mL],MIC80 (Candida parapsilosis) [µg/mL],MIC80 (Candida tropicalis [2]) [µg/mL],MIC80 (Cryptococcus neoformans [3]) [µg/mL],MIC80 (Pichia kudriavzevii) [µg/mL],MIC (Candida albicans [4]) [ng/mL],MIC (Candida tropicalis [5]) [ng/mL],MIC (Cryptococcus neoformans [6]) [ng/mL],MIC (Trichophyton rubrum [7]) [ng/mL],MIC (Nannizzia gypsea) [ng/mL],MIC80 (Candida tropicalis [8]) [µg/mL],MIC80 (Trichophyton rubrum [9]) [µg/mL],MIC80 (Microsporum canis [10]) [µg/mL],MIC80 (Fonsecaea compacta [11]) [µg/mL],MIC80 (Aspergillus fumigatus [12]) [µg/mL],Ratio (Candida tropicalis [13]),Ratio (Candida albicans [14]),Ratio (Cryptococcus neoformans [15]),Ratio (Trichophyton rubrum [16]),Ratio (Microsporum canis [17]),also measured
CN(CC(=O)Nc1ccc(Br)cc1)CC(O)(Cn1cncn1)c1ccc(F)cc1F (stereo unspecified),0.0156,0.25 to 1,0.25 to 1,0.0156,0.25 to 1,,,,,,,,,,,,,,,,
CN(CCCCOc1ccc([N+](=O)[O-])cc1)CC(O)(Cn1cncn1)c1ccc(F)cc1F (stereo unspecified),,,,,,1,1,1,1,1,,,,,,,,,,,
OC(CN(Cc1ccc(Cl)cc1)C1CC1)(Cn1cncn1)c1ccc(F)cc1F (stereo unspecified),,,,,,,,,,,0.125,0.125,0.125,0.125,0.125,4,4,4,4,4,Ratio (Fonsecaea compacta [18]): 4; Ratio (Aspergillus fumigatus [19]): 4
CC(C)(C)c1ccc(CN(CC(O)(Cn2cncn2)c2ccc(F)cc2F)C2CC2)cc1 (stereo unspecified),,,,,,,,,,,0.125,0.125,0.125,0.125,0.125,4,4,4,4,4,Ratio (Fonsecaea compacta [18]): 4; Ratio (Aspergillus fumigatus [19]): 4
Cc1ccc(NC(=O)CN(C)CC(O)(Cn2cncn2)c2ccc(F)cc2F)cc1C (stereo unspecified),0.0156,0.25 to 1,0.25 to 1,0.0156,0.25 to 1,,,,,,,,,,,,,,,,
CN(CCCOc1ccc(Cl)cc1)CC(O)(Cn1cncn1)c1ccc(F)cc1F (stereo unspecified),,,,,,1,1,1,1,1,,,,,,,,,,,
Cc1ccccc1CN(CC(O)(Cn1cncn1)c1ccc(F)cc1F)C1CC1 (stereo unspecified),,,,,,,,,,,0.125,0.125,0.125,0.125,0.125,4,4,4,4,4,Ratio (Fonsecaea compacta [18]): 4; Ratio (Aspergillus fumigatus [19]): 4
CN(CC(=O)Nc1ccccc1)CC(O)(Cn1cncn1)c1ccc(F)cc1F (stereo unspecified),0.0156,0.25 to 1,0.25 to 1,0.0156,0.25 to 1,,,,,,,,,,,,,,,,
COc1ccccc1NC(=O)CN(C)CC(O)(Cn1cncn1)c1ccc(F)cc1F (stereo unspecified),0.0156,0.25 to 1,0.25 to 1,0.0156,0.25 to 1,,,,,,,,,,,,,,,,
CN(CCCOc1ccccc1[N+](=O)[O-])CC(O)(Cn1cncn1)c1ccc(F)cc1F (stereo unspecified),,,,,,1 to 16,1 to 16,1 to 16,1 to 16,1 to 16,,,,,,,,,,,
